# Source: patent publication US11661404B2, “Prodrug compounds activated by AKR1C3 and their use for treating hyperproliferative disorders” (priority 2018, dated 2023)
# “Also recorded” adds a separate entry of the source.
# Experiments:
# [1] = Stability in solution by HPLC in water and lactate buffer; assay type: physicochemical
# Procedure: (§1) The solubility and stability of compound 641 was studied by HPLC in lactate buffer (pH 4) and water as the free base and the mesylate salt (641.Ms) at 0° C. and room temperature (RT). […] However, this was improved considerably by formulation as the mesylate salt, producing a solubility of greater than 100 mmol/L in lactate buffer and greater than 70 mmol/L in water. […] This stability was improved considerably by reducing the temperature of the solution to 0° C.
# [2] = tested on: SNU-398^WT (wild type) hepatocellular carcinoma xenografts; experiment: Tumour growth delay, SNU-398 wild type xenografts; assay type: in vivo, NIH-III mice; conditions: q4dx4 intraperitoneal, 50 mg/kg; negligible AKR1C3 expression; FIG. 7
# Source text: (§2) Specific pathogen-free female homozygous nude NIH-III (NIH-Lyst^bg Foxn1^nu Btk^xid) mice were bred by the Vernon Jansen Unit (shared vivarium, University of Auckland). Animals were housed in Techniplast microisolator cages and provided with a standard twelve hour day-night light schedule. Animals received standard rodent diet (Harlan Teklad diet 2018i) and water ad libitum. All animal studies were approved by the University of Auckland Animal Ethics Committee.
# (§3) Animals weighed 18-25 g at the time of tumour inoculation. Tumours were grown subcutaneously on the right flank of mice by inoculating cells grown in tissue culture (1×10^7 cells in 100 uL serum free α-MEM). Tumour sizes were monitored three times weekly using electronic callipers and treatments were initiated once tumour diameter reached ≥7 mm.
# (§4) Tumour bearing mice were randomised into the appropriate treatment groups and tumour size and body weight recorded. Test compounds were formulated on the day of the experiment and kept in foil-wrapped tubes out of direct fluorescent light. […] Mice were treated with a single (or q4dx3 or q4dx4 or q4dx6) dose of a compound of the invention by intraperitoneal injection and thereafter tumour size and body weight was monitored every second day. Tumour volume was calculated as […] (l×w×w)/6, where l is the major axis and w is the perpendicular minor axis. […]
# [3] = tested on: H460 lung cancer xenografts; experiment: Tumour growth delay, H460 xenografts; assay type: in vivo, NIH-III mice
# Source text: as §2, §3
# Tumour bearing mice were randomised into the appropriate treatment groups and tumour size and body weight recorded. Test compounds were formulated on the day of the experiment and kept in foil-wrapped tubes out of direct fluorescent light. If recruitment of animals occurred over multiple days, the drug stocks were aliquoted into tubes and frozen once at −80° C. until required. Mice were treated with a single (or q4dx3 or q4dx4 or q4dx6) dose of a compound of the invention by intraperitoneal injection and thereafter tumour size and body weight was monitored every second day. Tumour volume was calculated as […] (l×w×w)/6, where l is the major axis and w is the perpendicular minor axis. Animals were culled when they had reached the appropriate survival endpoint or when body weight loss exceeded 20% of the pre-treatment value.
# [4] = tested on: PLC/PRF/5 hepatocellular carcinoma xenografts; experiment: Tumour growth delay, PLC/PRF/5 xenografts; assay type: in vivo, NIH-III mice; conditions: q4dx4 intraperitoneal, 114 mg/kg
# Source text: as §2, §3, §4
# [5] = tested on: SW780 bladder carcinoma xenografts; experiment: Tumour growth delay, SW780 xenografts; assay type: in vivo, NIH-III mice; conditions: q4dx6 intraperitoneal, 50 mg/kg
# Source text: as §2, §3, §4
# [6] = Solubility by HPLC in water and lactate buffer; assay type: physicochemical; conditions: water, room temperature; read-out: Solubility, Water, RT
# Procedure: as §1
# [7] = tested on: SNU-398^AKR1C3 (AKR1C3 over-expressing) hepatocellular carcinoma xenografts; experiment: Tumour growth delay, SNU-398 AKR1C3 over-expressing xenografts; assay type: in vivo, NIH-III mice; conditions: q4dx4 intraperitoneal, 50 mg/kg
# Source text: as §2, §3, §4
smiles,measurement,setting,value
"CN1CCN(S(=O)(=O)c2cc([N+](=O)[O-])ccc2N(CCOS(C)(=O)=O)CCOS(C)(=O)=O)CC1 [Compound 641.Ms, 4-((2-(bis(2-((methylsulfonyl)oxy)ethyl)amino)-5-nitrophenyl)sulfonyl)-1-methylpiperazin-1-ium methanesulfonate]","Stability (% Parent after 24 hours), Lactate Buffer, 0° C.","[1]; lactate buffer (pH 4), 0° C.",91.7%
same,"Stability (% Parent after 24 hours), Lactate Buffer, RT","[1]; lactate buffer (pH 4), room temperature, methanesulfonate",51.9%
same,"Stability (% Parent after 24 hours), Water, RT","[1]; water, room temperature",53.8%
same,anti-tumour activity (mean tumour volume),[2],inactive
same,anti-tumour efficacy (mean tumour volume),"[3]; q4dx4 intraperitoneal, 10, 25, 50, 100 and 150 mg/kg, FIG. 4",significant anti-tumour efficacy
same,mean percentage change in body weight,"[3]; q4dx4 intraperitoneal, 10-150 mg/kg, all dose cohorts",≥ −10%
same,tolerability,"[3]; q4dx4 intraperitoneal, 10-150 mg/kg, methanesulfonate",well-tolerated; also recorded: well tolerated
same,anti-tumour efficacy (mean tumour volume),"[3]; single dose intraperitoneal, 237, 422, 562, 750 and 1000 μmol/kg, FIG. 3",significant anti-tumour efficacy
same,tolerability,"[3]; single dose intraperitoneal, 237-1000 μmol/kg",well-tolerated
same,tolerability of schedule,[4],well-tolerated
same,anti-tumour activity (mean tumour volume),[4]; FIG. 5,significant anti-tumour activity
same,tolerability of schedule,[5],well-tolerated
same,anti-tumour activity (mean tumour volume),[5]; FIG. 6,significant anti-tumour activity
same,solubility,[6],> 70 mM
same,anti-tumour activity (mean tumour volume),[7]; FIG. 7,significant anti-tumour activity
same,tolerability of schedule,[7]; mice bearing SNU-398^WT or SNU-398^AKR1C3 xenografts,well-tolerated
